pIC50: −log10 of the molar value. Like-named read-outs stand apart in the source and are kept apart here.
What was measured:
human Gal-3 (hGal-3) = human Gal-3 (hGal-3) (Homo sapiens (Human), UniProt P17931); assay: competitive binding assay: biotinylated hGal-3 binding to microplate-adsorbed asialofetuin (ASF)
Summary of the method: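 Serial DMSO dilutions of each compound; binding incubation of 3 hours at 4 °C with cold-buffer washes; detection using 80 ng/mL streptavidin-peroxidase for 1 hour, then ABTS. Multiple determinations were averaged to give the IC50.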

human Gal-1 (hGal-1) = human Gal-1 (hGal-1) (Homo sapiens (Human), UniProt P09382); assay: competitive binding assay: biotinylated hGal-1 binding to microplate-adsorbed asialofetuin (ASF); conditions: Table 15; read-out: IC50 (Galectin-1 inhibition)
Sequence of human Gal-1 (hGal-1) (P09382 whole entry): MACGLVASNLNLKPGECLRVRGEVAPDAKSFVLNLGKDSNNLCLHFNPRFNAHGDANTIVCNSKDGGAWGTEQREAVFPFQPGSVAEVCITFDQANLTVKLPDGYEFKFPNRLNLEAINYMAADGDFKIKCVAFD
Summary of the method: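 Spectrophotometric competition readout: after compound and biotinylated hGal-1 (300-1000 ng/mL) sit 3 h at 4° C on adsorbed asialofetuin, streptavidin-peroxidase (1 h, 4° C) and ABTS reveal residual binding. Reported IC50 values are means of repeat runs.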

[1] = Table 5, read-out: IC50 (Gal-3 inhibition)
[2] = Table 10, 2-OMe-Gal inhibitors, read-out: IC50 (Gal-3 inhibition)
[3] = Gal-3 inhibition, binding of biotinylated hGal-3 to ASF, mean values, read-out: IC50

Sequence of human Gal-3 (hGal-3) (P17931 whole entry): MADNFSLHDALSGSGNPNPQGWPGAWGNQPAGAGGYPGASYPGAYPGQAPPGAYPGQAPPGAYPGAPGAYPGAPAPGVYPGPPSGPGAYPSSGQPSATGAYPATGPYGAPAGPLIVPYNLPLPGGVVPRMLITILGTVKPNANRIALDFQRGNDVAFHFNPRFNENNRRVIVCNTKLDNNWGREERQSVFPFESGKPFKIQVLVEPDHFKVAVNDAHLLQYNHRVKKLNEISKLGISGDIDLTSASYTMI

Row | SMILES | pIC50 (human Gal-3 (hGal-3); [1]) | pIC50 (human Gal-1 (hGal-1)) | pIC50 (human Gal-3 (hGal-3); [2]) | pIC50 (human Gal-3 (hGal-3); Table 9, 2-OMe-Gal inhibitors, read-out: IC50 (Gal-3 inhibition)) | pIC50 (human Gal-3 (hGal-3); [3])
1 | Cc1nc(C)c([C@H](S[C@@H]2O[C@H](CO)[C@H](O)[C@H](n3cc(-c4cc(F)c(F)c(F)c4)nn3)[C@H]2O)C2(O)CCCCC2)nc1C [Example 2.39.119S., (2S,3R,4S,5R,6R)-2-(((S)-(1-Hydroxycyclohexyl) (3,5,6-trimethylpyrazin-2-yl)methyl)thio)-6-(hydroxymethyl)-4-(4-(3,4,5-trifluorophenyl)-1H-1,2,3-triazol-1-yl)tetrahydro-2H-pyran-3,5-diol] | 5.40 | 4.72 |  |  | 
2 | Cc1conc1[C@@H](S[C@@H]1O[C@H](CO)[C@H](O)[C@H](n2cc(-c3cc(F)c(F)c(F)c3)nn2)[C@H]1O)C1(O)CCCCC1 [Example 2.39.120R., (2S,3R,4S,5R,6R)-2-(((R)-(1-Hydroxycyclohexyl)(4-methylisoxazol-3-yl)methyl)thio)-6-(hydroxymethyl)-4-(4-(3,4,5-trifluorophenyl)-1H-1,2,3-triazol-1-yl)tetrahydro-2H-pyran-3,5-diol] | 6.70 | 6.21 |  |  | 
3 | CO[C@@H]1[C@@H](n2cc(-c3cc(F)c(F)c(F)c3)nn2)[C@@H](O)[C@@H](CO)O[C@H]1S[C@H](c1nocc1C)C1(O)CCCCC1 [Example 2.39.120R.I., (2R,3R,4S,5R,6S)-6-(((R)-(1-Hydroxycyclohexyl)(4-methylisoxazol-3-yl)methyl)thio)-2-(hydroxymethyl)-5-methoxy-4-(4-(3,4,5-trifluorophenyl)-1H-1,2,3-triazol-1-yl)tetrahydro-2H-pyran-3-ol] |  | 6.25 | 6.60 |  | 
4 | CO[C@@H]1[C@@H](n2cc(-c3cc(F)c(F)c(F)c3)nn2)[C@@H](O)[C@@H](CO)O[C@H]1S[C@@H](c1nocc1C)C1(O)CCCCC1 [Example 2.39.120S.I., (2R,3R,4S,5R,6S)-6-(((S)-(1-Hydroxycyclohexyl)(4-methylisoxazol-3-yl)methyl)thio)-2-(hydroxymethyl)-5-methoxy-4-(4-(3,4,5-trifluorophenyl)-1H-1,2,3-triazol-1-yl)tetrahydro-2H-pyran-3-ol] |  | 4.56 | 4.90 |  | 
5 | OC[C@H]1O[C@@H](S[C@H](c2ncccc2C(F)(F)F)C2(O)CCCCC2)[C@H](O)[C@@H](n2cc(-c3cc(F)c(F)c(F)c3)nn2)[C@H]1O [Example 2.39.125R., (2S,3R,4S,5R,6R)-2-(((R)-(1-Hydroxycyclohexyl)(3-(trifluoromethyl)pyridin-2-yl)methyl)thio)-6-(hydroxymethyl)-4-(4-(3,4,5-trifluorophenyl)-1H-1,2,3-triazol-1-yl)tetrahydro-2H-pyran-3,5-diol] | 7.00 | 6.55 |  |  | 
6 | CO[C@@H]1[C@@H](n2cc(-c3cc(F)c(F)c(F)c3)nn2)[C@@H](O)[C@@H](CO)O[C@H]1S[C@H](c1ncccc1C(F)(F)F)C1(O)CCCCC1 [Example 2.39.125R.I., (2R,3R,4S,5R,6S)-6-(((R)-(1-Hydroxycyclohexyl)(3-(trifluoromethyl)pyridin-2-yl)methyl)thio)-2-(hydroxymethyl)-5-methoxy-4-(4-(3,4,5-trifluorophenyl)-1H-1,2,3-triazol-1-yl)tetrahydro-2H-pyran-3-ol] |  | 6.34 |  | 7.05 | 
7 | OC[C@H]1O[C@@H](S[C@@H](c2ncccc2C(F)(F)F)C2(O)CCCCC2)[C@H](O)[C@@H](n2cc(-c3cc(F)c(F)c(F)c3)nn2)[C@H]1O [Example 2.39.125S., (2S,3R,4S,5R,6R)-2-(((S)-(1-Hydroxycyclohexyl)(3-(trifluoromethyl)pyridin-2-yl)methyl)thio)-6-(hydroxymethyl)-4-(4-(3,4,5-trifluorophenyl)-1H-1,2,3-triazol-1-yl)tetrahydro-2H-pyran-3,5-diol] | 5.52 | 4.66 |  |  | 
8 | Cc1noc(C2CC2)c1C(S[C@@H]1O[C@H](CO)[C@H](O)[C@H](n2cc(-c3cc(F)c(F)c(F)c3)nn2)[C@H]1O)C1(O)CCCCC1 (stereo partly drawn) [Example 2.39.128., (2S,3R,4S,5R,6R)-2-(((5-Cyclopropyl-3-methylisoxazol-4-yl)(1-hydroxycyclohexyl)methyl)thio)-6-(hydroxymethyl)-4-(4-(3,4,5-trifluorophenyl)-1H-1,2,3-triazol-1-yl)tetrahydro-2H-pyran-3,5-diol] | 6.68 | 5.95 |  |  | 
9 | Cc1noc(C2CC2)c1[C@@H](S[C@@H]1O[C@H](CO)[C@H](O)[C@H](n2cc(-c3cc(F)c(F)c(F)c3)nn2)[C@H]1O)C1(O)CCCCC1 [Example 2.39.128R., (2S,3R,4S,5R,6R)-2-(((R)-(5-Cyclopropyl-3-methylisoxazol-4-yl)(1-hydroxycyclohexyl)methyl)thio)-6-(hydroxymethyl)-4-(4-(3,4,5-trifluorophenyl)-1H-1,2,3-triazol-1-yl)tetrahydro-2H-pyran-3,5-diol] | 6.72 | 5.99 |  |  | 
10 | Cc1noc(C2CC2)c1[C@H](S[C@@H]1O[C@H](CO)[C@H](O)[C@H](n2cc(-c3cc(F)c(F)c(F)c3)nn2)[C@H]1O)C1(O)CCCCC1 [Example 2.39.128S., (2S,3R,4S,5R,6R)-2-(((S)-(5-Cyclopropyl-3-methylisoxazol-4-yl)(1-hydroxycyclohexyl)methyl)thio)-6-(hydroxymethyl)-4-(4-(3,4,5-trifluorophenyl)-1H-1,2,3-triazol-1-yl)tetrahydro-2H-pyran-3,5-diol] | 5.49 | 4.63 |  |  | 
11 | Cc1ccccc1C(S[C@@H]1O[C@H](CO)[C@H](O)[C@H](n2cc(-c3cc(F)c(F)c(F)c3)nn2)[C@H]1O)C1(O)CCN(C)CC1 (stereo partly drawn) [Example 2.40.102., (2S,3R,4S,5R,6R)-2-(((4-Hydroxy-1-methylpiperidin-4-yl)(o-tolyl)methyl)thio)-6-(hydroxymethyl)-4-(4-(3,4,5-trifluorophenyl)-1H-1,2,3-triazol-1-yl)tetrahydro-2H-pyran-3,5-diol] | 7.05 | 6.14 |  |  | 
12 | CN1CCC(O)(C(S[C@@H]2O[C@H](CO)[C@H](O)[C@H](n3cc(-c4cc(F)c(F)c(F)c4)nn3)[C@H]2O)c2ccccc2C(F)(F)F)CC1 (stereo partly drawn) [Example 2.40.112., (2S,3R,4S,5R,6R)-2-(((4-Hydroxy-1-methylpiperidin-4-yl)(2-(trifluoromethyl)phenyl)methyl)thio)-6-(hydroxymethyl)-4-(4-(3,4,5-trifluorophenyl)-1H-1,2,3-triazol-1-yl)tetrahydro-2H-pyran-3,5-diol] | 6.89 | 6.38 |  |  | 
13 | CN1CCC(O)([C@H](S[C@@H]2O[C@H](CO)[C@H](O)[C@H](n3cc(-c4cc(F)c(F)c(F)c4)nn3)[C@H]2O)c2ccccc2C(F)(F)F)CC1 [Example 2.40.112R., (2S,3R,4S,5R,6R)-2-(((R)-(4-Hydroxy-1-methylpiperidin-4-yl)(2-(trifluoromethyl)phenyl)methyl)thio)-6-(hydroxymethyl)-4-(4-(3,4,5-trifluorophenyl)-1H-1,2,3-triazol-1-yl)tetrahydro-2H-pyran-3,5-diol] | 7.22 | 6.82 |  |  | 
14 | CN1CCC(O)([C@@H](S[C@@H]2O[C@H](CO)[C@H](O)[C@H](n3cc(-c4cc(F)c(F)c(F)c4)nn3)[C@H]2O)c2ccccc2C(F)(F)F)CC1 [Example 2.40.112S., (2S,3R,4S,5R,6R)-2-(((S)-(4-Hydroxy-1-methylpiperidin-4-yl)(2-(trifluoromethyl)phenyl)methyl)thio)-6-(hydroxymethyl)-4-(4-(3,4,5-trifluorophenyl)-1H-1,2,3-triazol-1-yl)tetrahydro-2H-pyran-3,5-diol] | 5.40 | 4.66 |  |  | 
15 | Cc1nc(C)c(C(S[C@@H]2O[C@H](CO)[C@H](O)[C@H](n3cc(-c4cc(F)c(F)c(F)c4)nn3)[C@H]2O)C2(O)CCN(C)CC2)nc1C (stereo partly drawn) [Example 2.40.119., (2S,3R,4S,5R,6R)-2-(((4-Hydroxy-1-methylpiperidin-4-yl)(3,5,6-trimethylpyrazin-2-yl)methyl)thio)-6-(hydroxymethyl)-4-(4-(3,4,5-trifluorophenyl)-1H-1,2,3-triazol-1-yl)tetrahydro-2H-pyran-3,5-diol] |  | 6.57 |  |  | 7.00
16 | Cc1nc(C)c([C@@H](S[C@@H]2O[C@H](CO)[C@H](O)[C@H](n3cc(-c4cc(F)c(F)c(F)c4)nn3)[C@H]2O)C2(O)CCN(C)CC2)nc1C [Example 2.40.119R., (2S,3R,4S,5R,6R)-2-(((R)-(4-Hydroxy-1-methylpiperidin-4-yl)(3,5,6-trimethylpyrazin-2-yl)methyl)thio)-6-(hydroxymethyl)-4-(4-(3,4,5-trifluorophenyl)-1H-1,2,3-triazol-1-yl)tetrahydro-2H-pyran-3,5-diol] |  | 6.96 |  |  | 7.30
17 | Cc1nc(C)c([C@H](S[C@@H]2O[C@H](CO)[C@H](O)[C@H](n3cc(-c4cc(F)c(F)c(F)c4)nn3)[C@H]2O)C2(O)CCN(C)CC2)nc1C [Example 2.40.119S., (2S,3R,4S,5R,6R)-2-(((S)-(4-Hydroxy-1-methylpiperidin-4-yl)(3,5,6-trimethylpyrazin-2-yl)methyl)thio)-6-(hydroxymethyl)-4-(4-(3,4,5-trifluorophenyl)-1H-1,2,3-triazol-1-yl)tetrahydro-2H-pyran-3,5-diol] |  | 4.97 |  |  | 5.52
18 | CN1CCC(O)(C(S[C@@H]2O[C@H](CO)[C@H](O)[C@H](n3cc(-c4cc(F)c(F)c(F)c4)nn3)[C@H]2O)c2ncccc2C(F)(F)F)CC1 (stereo partly drawn) [Example 2.40.125., (2S,3R,4S,5R,6R)-2-(((4-Hydroxy-1-methylpiperidin-4-yl)(3-(trifluoromethyl)pyridin-2-yl)methyl)thio)-6-(hydroxymethyl)-4-(4-(3,4,5-trifluorophenyl)-1H-1,2,3-triazol-1-yl)tetrahydro-2H-pyran-3,5-diol] | 6.70 | 6.28 |  |  | 
